Test: pKa value by using fluorescence emission spectra
Type: physicochemical

Row | pKa | SMILES
1 | 7.5 | CN(C)c1ccc2c(-c3cc(C(=O)O)ccc3C(=O)O)c3ccc4cc(=O)ccc4c3oc2c1
2 | 6.4 | CN(C)c1ccc2c(-c3cc(C(=O)O)ccc3C(=O)O)c3ccc4c(F)c(=O)ccc4c3oc2c1
3 | 7.2 | CN(C)c1ccc2c(-c3cc(C(=O)O)ccc3C(=O)O)c3cc(F)c4cc(=O)ccc4c3oc2c1

Source: ChEMBL document CHEMBL1134427, “Synthesis and photophysical properties of new fluorinated benzo[c]xanthene dyes as intracellular pH indicators” (Bioorg Med Chem Lett, 2001)
